{
  "source": "patent US20240025862A1",
  "about": "“SUBSTITUTED N-PHENYLURACILS AND SALTS THEREOF, AND USE THEREOF AS HERBICIDAL ACTIVE SUBSTANCES” (Bayer Aktiengesellschaft, priority 2020, published 2024)",
  "format_in_all_cases": "in vivo",
  "key": {"[1]": {"test_system": "Abutilon theophrasti (ABUTH)", "test": "Post-emergence herbicidal action, greenhouse pot test", "conditions": "Abutilon theophrasti, 504 h, rated visually after about 3 weeks vs untreated controls, 100% = plants have died", "how_it_was_run": "(§1)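 Greenhouse-grown weeds in sandy loam were sprayed post-emergence at the one-leaf stage, 2–3 weeks after sowing. Compounds were formulated as WP or EC in water with 0.5% additive at 600 l/ha, at rates of 20 g/ha or less. Visual rating after about 3 weeks used a scale from 0% (like untreated control) to 100% (plants dead).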"}, "[2]": {"test_system": "Amaranthus retroflexus (AMARE)", "test": "Post-emergence herbicidal action, greenhouse pot test", "conditions": "Amaranthus retroflexus, 504 h, rated visually after about 3 weeks vs untreated controls, 100% = plants have died", "how_it_was_run": "as §1"}, "Avena fatua (AVEFA)": {"test_system": "Avena fatua (AVEFA)", "test": "Post-emergence herbicidal action, greenhouse pot test", "conditions": "Avena fatua, 504 h, 20 g/ha, rated visually after about 3 weeks vs untreated controls, 100% = plants have died, read-out: Post-emergence action at 20 g/ha against AVEFA in %", "how_it_was_run": "as §1"}, "Lolium rigidum (LOLRI)": {"test_system": "Lolium rigidum (LOLRI)", "test": "Post-emergence herbicidal action, greenhouse pot test", "conditions": "Lolium rigidum, 504 h, dosage 20 g/ha, read-out: Post-emergence action against LOLRI in %", "how_it_was_run": "as §1"}, "[3]": {"test_system": "Pharbitis purpurea (PHBPU)", "test": "Post-emergence herbicidal action, greenhouse pot test", "conditions": "Ipomoea purpurea, 504 h, read-out: Post-emergence action against PHBPU in %", "how_it_was_run": "as §1"}, "[4]": {"test_system": "Polygonum convolvulus (POLCO)", "test": "Post-emergence herbicidal action, greenhouse pot test", "conditions": "Fallopia convolvulus, 504 h, read-out: Post-emergence action against POLCO in %", "how_it_was_run": "as §1"}, "Veronica persica (VERPE)": {"test_system": "Veronica persica (VERPE)", "test": "Post-emergence herbicidal action, greenhouse pot test", "conditions": "Veronica persica, 504 h, read-out: Post-emergence action against VERPE", "how_it_was_run": "as §1"}, "Viola tricolor (VIOTR)": {"test_system": "Viola tricolor (VIOTR)", "test": "Post-emergence herbicidal action, greenhouse pot test", "conditions": "Viola tricolor, 504 h, read-out: Post-emergence action against VIOTR", "how_it_was_run": "as §1"}, "[5]": {"test_system": "Alopecurus myosuroides (ALOMY)", "test": "Post-emergence herbicidal action, greenhouse pot test (also comparative test C)", "how_it_was_run": "(§2)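 Greenhouse pot plants in sandy loam were sprayed post-emergence at the one-leaf stage (2–3 weeks after sowing) with WP or EC formulations plus 0.5% additive at 600 l/ha water. Activity was rated visually after about 3 weeks versus untreated controls (100% = dead, 0% = like control); rates were 20 g/ha or less, and 5 g/ha or less in the comparative test.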"}, "[6]": {"test_system": "Echinochloa crus-galli (ECHCG)", "test": "Post-emergence herbicidal action, greenhouse pot test (also comparative test C)", "how_it_was_run": "as §2"}, "[7]": {"test_system": "Matricaria inodora (MATIN)", "test": "Post-emergence herbicidal action, greenhouse pot test (also comparative test C)", "how_it_was_run": "as §2"}, "Setaria viridis (SETVI)": {"test_system": "Setaria viridis (SETVI)", "test": "Post-emergence herbicidal action, greenhouse pot test (also comparative test C)", "how_it_was_run": "as §2"}, "Oryza sativa (ORYSA)": {"test_system": "Oryza sativa (ORYSA)", "test": "Post-emergence crop plant compatibility, greenhouse pot test (also comparative test C)", "how_it_was_run": "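Rice and other crops sprayed post-emergence at one-leaf stage (2–3 weeks after sowing) with WP or EC formulations plus 0.5% additive at 600 l/ha water. Visual rating about 3 weeks later versus untreated controls (100% = dead, 0% = like control); suffixes a–c denote different doses.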"}, "Zea mays (ZEAMX)": {"test_system": "Zea mays (ZEAMX)", "test": "Pre-emergence crop plant compatibility, greenhouse pot test", "conditions": "20 g/ha", "text": "Seeds of monocotyledonous and dicotyledonous weed plants and crop plants were placed in plastic or organic planting pots and covered with soil. The compounds of the invention, formulated in the form of wettable powders (WP) or as emulsion concentrates (EC), were then applied to the surface of the covering soil as aqueous suspension or emulsion with addition of 0.5% additive at a water application rate equivalent to 600 l/ha (converted). After the treatment, the pots were placed in a greenhouse and kept under good growth conditions for the test plants. After about 3 weeks, the effect of the preparations was scored visually in comparison with untreated controls as percentages. For example, 100% activity=the plants have died, 0% activity=like control plants.\nThe observed effects on selected crop plants are reported here in comparison to the untreated controls (values in %)."}, "[8]": {"conditions": "application rate of 5 g or less per hectare, tables C1 to C4"}, "[9]": {"conditions": "comparative test C, application rate 1.25 g/ha"}},
  "data": [
    {"compound": "COCCOC(=O)COc1ccccc1Oc1cc(-n2c(=O)cc(C(F)(F)F)n(C)c2=O)c(F)cc1Cl", "note": "[I.7-1, 2-Methoxyethyl (2-{2-chloro-4-fluoro-5-[3-methyl-2,6-dioxo-4-(trifluoromethyl)-3,6-dihydropyrimidin-1(2H)-yl]phenoxy}phenoxy)acetate]", "values": [
      {"measurement": "pest or weed control at 5 g/ha", "setting": "[1]; 5 g/ha, read-out: Post-emergence action at 5 g/ha against ABUTH in %", "result": 100, "unit": "%"},
      {"measurement": "pest or weed control at 20 g/ha", "setting": "[1]; 20 g/ha, read-out: Post-emergence action at 20 g/ha against ABUTH in %", "result": 100, "unit": "%"},
      {"measurement": "pest or weed control at 1.25 g/ha", "setting": "[2]; 1.25 g/ha, read-out: Post-emergence action at 1.25 g/ha against AMARE in %", "result": 100, "unit": "%"},
      {"measurement": "pest or weed control at 5 g/ha", "setting": "[2]; 5 g/ha, read-out: Post-emergence action at 5 g/ha against AMARE in %", "result": 100, "unit": "%"},
      {"measurement": "pest or weed control at 20 g/ha", "setting": "[2]; 20 g/ha, read-out: Post-emergence action at 20 g/ha against AMARE in %", "result": 100, "unit": "%"},
      {"measurement": "pest or weed control at 20 g/ha", "setting": "Avena fatua (AVEFA)", "result": 80, "unit": "%"},
      {"measurement": "pest or weed control at 20 g/ha", "setting": "Lolium rigidum (LOLRI)", "result": 80, "unit": "%"},
      {"measurement": "pest or weed control at 1.25 g/ha", "setting": "[3]; dosage 1.25 g/ha", "result": 100, "unit": "%"},
      {"measurement": "pest or weed control at 5 g/ha", "setting": "[3]; dosage 5 g/ha", "result": 100, "unit": "%"},
      {"measurement": "pest or weed control at 20 g/ha", "setting": "[3]; dosage 20 g/ha", "result": 100, "unit": "%"},
      {"measurement": "pest or weed control at 5 g/ha", "setting": "[4]; dosage 5 g/ha", "result": 80, "unit": "%"},
      {"measurement": "pest or weed control at 20 g/ha", "setting": "[4]; dosage 20 g/ha", "result": 100, "unit": "%"},
      {"measurement": "pest or weed control at 1.25 g/ha", "setting": "Veronica persica (VERPE); 1.25 g/ha", "result": 100, "unit": "%"},
      {"measurement": "pest or weed control at 5 g/ha", "setting": "Veronica persica (VERPE); 5 g/ha", "result": 100, "unit": "%"},
      {"measurement": "pest or weed control at 20 g/ha", "setting": "Veronica persica (VERPE); 20 g/ha", "result": 100, "unit": "%"},
      {"measurement": "pest or weed control at 1.25 g/ha", "setting": "Viola tricolor (VIOTR); 1.25 g/ha", "result": 100, "unit": "%"},
      {"measurement": "pest or weed control at 5 g/ha", "setting": "Viola tricolor (VIOTR); 5 g/ha", "result": 100, "unit": "%"},
      {"measurement": "pest or weed control at 20 g/ha", "setting": "Viola tricolor (VIOTR); 20 g/ha", "result": 100, "unit": "%"},
      {"measurement": "pest or weed control at 5 g/ha", "setting": "[5]; Alopecurus myosuroides, 504 h, 5 g/ha, rated visually after about 3 weeks vs untreated controls, 100% = plants have died, read-out: Post-emergence action at 5 g/ha against ALOMY in %", "result": 80, "unit": "%"},
      {"measurement": "pest or weed control at 20 g/ha", "setting": "[5]; Alopecurus myosuroides, 504 h, 20 g/ha, rated visually after about 3 weeks vs untreated controls, 100% = plants have died, read-out: Post-emergence action at 20 g/ha against ALOMY in %", "result": 100, "unit": "%"},
      {"measurement": "herbicidal efficacy against ALOMY by comparison with literature compound a-17 / 3-14", "setting": "[5]; [8]", "result": "distinct improvement in herbicidal efficacy"},
      {"measurement": "Post-emergence action at 1.25 g/ha against ECHCG in %", "setting": "[6]; 1.25 g/ha, rated visually after about 3 weeks vs untreated controls, 100% = plants have died", "result": 90, "unit": "%"},
      {"measurement": "pest or weed control at 5 g/ha", "setting": "[6]; Echinochloa crus-galli, 504 h, dosage 5 g/ha, read-out: Post-emergence action against ECHCG in %", "result": 100, "unit": "%"},
      {"measurement": "pest or weed control at 20 g/ha", "setting": "[6]; Echinochloa crus-galli, 504 h, dosage 20 g/ha, read-out: Post-emergence action against ECHCG in %", "result": 90, "unit": "%"},
      {"measurement": "herbicidal efficacy against ECHCG by comparison with literature compound a-17 / 3-14", "setting": "[6]; [8]", "result": "distinct improvement in herbicidal efficacy"},
      {"measurement": "ECHCG (efficacy in %)", "setting": "[6]; [9]", "result": 90, "unit": "%"},
      {"measurement": "pest or weed control at 1.25 g/ha", "setting": "[7]; Tripleurospermum inodorum, 504 h, dosage 1.25 g/ha, read-out: Post-emergence action against MATIN in %", "result": 100, "unit": "%"},
      {"measurement": "pest or weed control at 5 g/ha", "setting": "[7]; Tripleurospermum inodorum, 504 h, dosage 5 g/ha, read-out: Post-emergence action against MATIN in %", "result": 100, "unit": "%"},
      {"measurement": "pest or weed control at 20 g/ha", "setting": "[7]; Tripleurospermum inodorum, 504 h, dosage 20 g/ha, read-out: Post-emergence action against MATIN in %", "result": 100, "unit": "%"},
      {"measurement": "herbicidal efficacy against MATIN by comparison with literature compound a-17 / 3-14", "setting": "[7]; [8]", "result": "distinct improvement in herbicidal efficacy"},
      {"measurement": "MATIN (efficacy in %)", "setting": "[7]; [9]", "result": 100, "unit": "%"},
      {"measurement": "pest or weed control at 20 g/ha", "setting": "Setaria viridis (SETVI); Setaria viridis, 504 h, 20 g/ha, read-out: Post-emergence action against SETVI", "result": 100, "unit": "%"},
      {"measurement": "pest or weed control at 1.25 g/ha", "setting": "Setaria viridis (SETVI); Setaria viridis, 504 h, dosage 1.25 g/ha, read-out: Post-emergence action against SETVI in %", "result": 100, "unit": "%"},
      {"measurement": "pest or weed control at 5 g/ha", "setting": "Setaria viridis (SETVI); Setaria viridis, 504 h, dosage 5 g/ha, read-out: Post-emergence action against SETVI in %", "result": 100, "unit": "%"},
      {"measurement": "herbicidal efficacy against SETVI by comparison with literature compound a-17 / 3-14", "setting": "Setaria viridis (SETVI); [8]", "result": "distinct improvement in herbicidal efficacy"},
      {"measurement": "SETVI (efficacy in %)", "setting": "Setaria viridis (SETVI); [9]", "result": 100, "unit": "%"},
      {"measurement": "compatibility with respect to the crop plant Oryza sativa (ORYSA) by comparison with literature compound a-17 / 3-14", "setting": "Oryza sativa (ORYSA); application rate of 1.25 g per hectare, table C5", "result": "distinct improvement in compatibility"},
      {"measurement": "ORYSA (efficacy in %)", "setting": "Oryza sativa (ORYSA); comparative test C, application rate 1.25 g/ha, crop plant compatibility", "result": 0, "unit": "%"},
      {"measurement": "Pre-emergence action against ZEAMX in %", "setting": "Zea mays (ZEAMX)", "result": 0, "unit": "%"}
    ]}
  ]
}
